Assay results published in US4382940A (priority 1979, dated 1983).
Read-outs that look alike come from different tables or passages of the source.

Legend:
[1] = test system: central amphetamine-induced hypothermia; assay: antagonism to central amphetamine-induced hypothermia; conditions: Mus musculus, po, read-out: Amphetamine antagonism (ED50)
[2] = orientative acute toxicity (7 days observation, Irwin's observational assessment of mouse behavior); conditions: mouse, in vivo, po
[3] = test system: reserpine-induced blepharospasm; assay: antagonism to reserpine-induced blepharospasm; format: in vivo, male mice; conditions: Mus musculus, po, 3 h, read-out: Reserpine antagonism, Blepharospasm (ED50)
Protocol: (§1) The tests were performed in an air-conditioned room at the constant temperature of 19°±1° C. Randomized groups of male mice were respectively treated by gavage with appropriate screening doses (from a maximum of 25 mg/kg below) of the test compounds, suspended in the vehicle (Methocel 0.5%; 1 ml/100 g b.w.), or with the vehicle alone.
(§2) One hour later the animals received an i.p. injection of reserpine (1.5 mg/kg; 1 ml/100 g b.w.), and one of the control groups the same volume of the vehicle alone (blank controls). Three hours after pretreatments, i.e. two hours after reserpine or vehicle treatments, blepharospasm was evaluated in scores as proposed by RUBIN et al. (J. Pharmacol., 120:125, 1957).

[4] = test system: reserpine-induced hypothermia; assay: antagonism to reserpine-induced hypothermia; format: in vivo; conditions: Mus musculus, po; gavage 1 h before reserpine 1.5 mg/kg i.p.; rectal temperature 2 h after blepharospasm evaluation; male mice
Protocol: as §1, §2
Two hours after the above-mentioned evaluation the rectal temperature of the animals was recorded by an appropriate probe connected to a digital thermometer (ELLAB DU-3).

mouse = assay: orientative acute toxicity (7 days observation, Irwin's observational assessment of mouse behavior); conditions: in mice; imipramine compared with title compounds

Work on CC(=O)C=C(C)OC[C@@H]1C[C@@H]2c3cccc4[nH]cc(c34)C[C@H]2N(C)C1 [355/1171, 6-Methyl-3-[(3-buten-2-one-4-methyl)-4-oxymethyl]-ergoline] yielded an ED50 [1] of 0.023 mg/kg and an LD50 at 168 h [2] of over 800 mg/kg.

CN1C[C@H](CNC2=CC(=O)CC2)C[C@@H]2c3cccc4[nH]cc(c34)C[C@H]21 [355/1206, 6-Methyl-8-[(2-cyclopentenon)-3-aminomethyl]-ergoline] showed an ED50 [3] of 3.1 mg/kg, an ED50 [4] of 7.7 mg/kg and an LD50 at 168 h [2] of over 800 mg/kg.

Work on CN1C[C@H](COC2=CC(=O)CC2)C[C@@H]2c3cccc4[nH]cc(c34)C[C@H]21 [355/1228, 6-Methyl-8-[(2-cyclopentenon)-3-oxymethyl]-ergoline] yielded an ED50 [3] of 0.14 mg/kg, an ED50 [4] of 0.39 mg/kg and an LD50 at 168 h [2] of over 600 mg/kg.

For CO[C@]12C[C@@H](COC3=CC(=O)CC3)CN(C)[C@@H]1Cc1cn(C)c3cccc2c13 [355/1240, 1,6-Dimethyl-8-[(2-cyclopentenon)-3-oxymethyl]-10-methoxyergoline], the ED50 [1] was 1.8 mg/kg and the LD50 at 168 h [2] was 200 mg/kg.

Compound CN1C[C@H](CNC2=CC(=O)CC2)C[C@@H]2c3cccc4c3c(cn4C)C[C@H]21 [355/1295, 1,6-Dimethyl-8-[(2-cyclopentenon)-3-aminomethyl]-ergoline] has an ED50 [1] of 1.8 mg/kg and an LD50 at 168 h [2] of over 400 mg/kg.

Compound Cc1[nH]c2cccc3c2c1C[C@@H]1[C@@H]3C[C@@H](COC2=CC(=O)CC2)CN1C [355/1301, 2,6-Dimethyl-8-[(2-cyclopentenon)-3-oxymethyl]-ergoline] has an ED50 [3] of 0.46 mg/kg, an ED50 [4] of 0.57 mg/kg and an LD50 at 168 h [2] of 300 mg/kg.

Compound CC(=CC#N)OC[C@@H]1C[C@@H]2c3cccc4[nH]cc(c34)C[C@H]2N(C)C1 [355/1311, 6-Methyl-8-[(3-methylacrylic nitrile)-3-oxymethyl]-ergoline] has an ED50 [3] of 1.5 mg/kg, an ED50 [4] of 3.4 mg/kg and an LD50 at 168 h [2] of 300 mg/kg.

For CN1C[C@H](COC2=CC(=O)CC2)C[C@@H]2c3cccc4[nH]c(Cl)c(c34)C[C@H]21 [355/1335, 2-Chloro-6-methyl-8-[(2-cyclopentenon)-3-oxymethyl]-ergoline], the ED50 [3] was 0.2 mg/kg, the ED50 [4] was 0.3 mg/kg and the LD50 at 168 h [2] was 200 mg/kg.

Work on CSc1[nH]c2cccc3c2c1C[C@@H]1[C@@H]3C[C@@H](COC=CC(C)=O)CN1C [355/1357, 2-Thiomethyl-6-methyl-8-[(3-buten-2-one)-4-oxymethyl]-ergoline] yielded an ED50 [1] of 2.5 mg/kg and an LD50 at 168 h [2] of over 300 mg/kg.

In the case of CCCN1C[C@H](COC=CC(C)=O)C[C@@H]2c3cccc4[nH]cc(c34)C[C@H]21 [355/1363, 6-Propyl-8-[(3-buten-2-one)-4-oxymethyl]-ergoline], the ED50 [1] is reported as 2.4 mg/kg and the LD50 at 168 h [2] is reported as 400 mg/kg.

In the case of CN(C)CCCN1c2ccccc2CCc2ccccc21 [imipramine, reference compound], the ED50 ([3]; gavage 1 h before reserpine 1.5 mg/kg i.p., scored 2 h after reserpine, male mice) is reported as 3.1 mg/kg, the ED50 [4] is reported as 18.2 mg/kg and the “orientative acute toxicity (in words)” value (mouse) is reported as “quite higher orientative acute toxicity”.
